# Key:
# influenza vaccine [1] = conditions: young adults; topical imiquimod vs sham aqueous cream; cited from earlier work
# [2] = tested on: 2009 pandemic influenza A(H1N1) virus and avian influenza virus A(H7N9); conditions: cited from earlier work
# influenza vaccine [3] = conditions: older adults, cited from earlier work
# [4] = tested on: split-virion seasonal influenza vaccine; assay: Antibody titers after influenza vaccination with or without intraperitoneal miltefosine (FIG. 1); type: in vivo, mice
# Excerpt: FIG. 1: FIG. 1 depicts antibody titers measured 14 days after vaccination with or without miltefosine. A second dose of vaccine was provided on day 14. Circles indicate data from the miltefosine+vaccine treatment group; squares indicate data from the vaccine only treatment group; triangles indicate data from the miltefosine only treatment group; inverted triangles indicate data from a saline-treated control group.
# Miltefosine is an FDA-approved anti-parasitic drug that is used in the treatment of Leishmaniasis. The immunomodulating effects of miltefosine include being an agonist of TLR4 and TLR9 (Das S, Rani M, Pandey K, Sahoo G C, Rabidas V N, Singh D, et al. Combination of paromomycin and miltefosine promotes TLR4-dependent induction of antileishmanial immune response in vitro. J Antimicrob Chemother 2012; 67:2373-8; Mukherjee A K, Gupta G, Adhikari A, Majumder S, Kar Mahapatra S, Bhattacharyya Majumdar S, et al. Miltefosine triggers a strong proinflammatory cytokine response during visceral leishmaniasis: role of TLR4 and TLR9. Int Immunopharmacol 2012; 12:565-72), enhancing IFN-γ receptor (Wadhone P, Maiti M, Agarwal R, Kamat V, Martin S, Saha B. Miltefosine promotes IFN-gamma-dominated anti-leishmanial immune response. J Immunol 2009; 182:7146-54), promoting IL12-dependent TH1 response (Wadhone P, Maiti M, Agarwal R, Kamat V, Martin S, Saha B. Miltefosine promotes IFN-gamma-dominated anti-leishmanial immune response. J Immunol 2009; 182:7146-54), and inhibiting PI3K-Akt pathway (Lucas A, Kim Y, Rivera-Pabon O, Chae S, Kim D H, Kim B. Targeting the PI3K/Akt cell survival pathway to induce cell death of HIV-1 infected macrophages with alkylphospholipid compounds. PLoS One 2010; 5). Topical formulation of miltefosine has been evaluated in the treatment of breast carcinoma (Clive S, Gardiner J, Leonard R C. Miltefosine as a topical treatment for cutaneous metastases in breast carcinoma. Cancer Chemother Pharmacol 1999; 44 Suppl:S29-30). […] It was also noted that both IgG1 and IgG2a responses were enhanced by the use of miltefosine in combination with intradermal vaccination.
# influenza infection [5] = assay: Post-infection antibody, hemagglutination and microneutralization titers of mice vaccinated with or without miltefosine (FIG. 3); type: in vivo; conditions: intraperitoneal miltefosine + vaccine vs vaccine only
# Excerpt: Circles indicate data from the miltefosine+vaccine treatment group; squares indicate data from the vaccine only treatment group; triangles indicate data from the miltefosine only treatment group; inverted triangles indicate data from a saline-treated control group.
# In FIG. 3 circles indicate data from the miltefosine+vaccine treatment group, squares indicate data from the vaccine only treatment group, triangles indicate data from the miltefosine only treatment group, and inverted triangles indicate data from a saline-treated control group.
# influenza infection [6] = assay: Survival of mice infected 3 or 7 days after a single influenza vaccination with or without miltefosine (FIGS. 2A, 2B); type: in vivo; conditions: intraperitoneal miltefosine adjuvant + vaccine vs vaccine without adjuvant; infected 3 or 7 days after vaccination
# Experimental: FIGS. 2A and 2B: FIG. 2A depicts survival rates of infected mice that were vaccinated with or without miltefosine 3 days prior to infection. Data from treatment with 0.2 mg miltefosine+vaccine is represented by a combination a circle and a solid line. Data from treatment with 0.008 mg miltefosine+vaccine is represented by a combination of a rhombus and a dashed line. Data from treatment with 0.2 mg miltefosine only is represented by a dash/dot line. Data from treatment with vaccine only is represented by a combination of a square and a solid line. Data from treatment with a saline control is represented by a dotted line. FIG. 2B depicts survival rates of infected mice that were vaccinated with (circle/dashed line, rhombus/dashed line, or black) or without (square/solid line) miltefosine 7 days prior to infection. Data from treatment with 1 mg miltefosine+vaccine is represented by a combination a triangle and a solid line. Data from treatment with 0.2 mg miltefosine+vaccine is represented by a combination a circle and a solid line. Data from treatment with 0.008 mg miltefosine+vaccine is represented by a combination of a rhombus and a dashed line. Data from treatment with 0.2 mg miltefosine only is represented by a dash/dot line. Data from treatment with vaccine only is represented by a combination of a square and a solid line. […]
# [7] = miltefosine + vaccine vs vaccine only, 14 days after vaccination
smiles,measurement,setting,value
CCCCC/C=C\C/C=C\C/C=C\C/C=C\CCCC(=O)N[C@H](C)CO [(R)-methanandamide],CC50,in vitro,> 60 µM
CC(C)Cn1cnc2c(N)nc3ccccc3c21 [imiquimod],Antibody responses for homologous virus,influenza vaccine [1],faster and more robust
same,Death during lethal challenge,[2]; 2009 pandemic A(H1N1) and A(H7N9) lethal challenge,reduction
same,Immunogenicity of the influenza vaccine,[2]; mouse model,accelerate and augment
same,Antibody response,influenza vaccine [3]; topical imiquimod vs sham aqueous cream before intradermal vaccine,more rapid and robust
same,Rate of hospitalization and pneumonia,influenza vaccine [3]; topical imiquimod vs sham aqueous cream,significantly lower
CCCCCCCCCCCCCCCCOP(=O)([O-])OCC[N+](C)(C)C [miltefosine],Hemagglutination titer,[4]; [7],improved
same,Microneutralization titer,[4]; [7],improved
same,IgG titer,"[4]; miltefosine in combination with influenza vaccination vs vaccine only, two weeks post-immunization",significantly increased
same,IgG1 and IgG2a responses,[4]; miltefosine in combination with vaccination,enhanced
same,IgG1/IgG2 ratio,influenza infection [5],greater
same,HAI titer,influenza infection [5]; 4 days post-infection,significantly higher
same,MN titer,influenza infection [5]; 4 days post-infection,significantly higher
same,Survival,influenza infection [6],significantly improved

# Reference: patent publication US12144856B2 (priority 2019, dated 2024)
